The text below walks through data of patent US10821084B2, “Dihydromyricetin compositions” (REMY BIOSCIENCES, INC., priority 2018, dated 2020).

For series [1] the following is noted: patch measuring 20 cm^2, PIB adhesive and 10% CBD; cited from earlier work.
Series [2] can be described thus: In vitro transdermal flux of cannabinoids from monolithic patches, Franz Diffusion Cell method. The class given is in vitro ADME, human. The conditions noted are these: for stimulation of cumulative CBD flux versus no dihydromyricetin: 15% CBD patch. An excerpt:
Transdermal flux of cannabinoids can be measured In Vitro through human cadaver epidermis using Franz Diffusion Cell Method. Samples of 300 microliters can be taken of the receiving solution and analyzed by HPLC for amount ofcannabinoid substance that passed through the epidermis.
Flux is preferably measured using human cadaver skin with a Franz Diffusion Cell (see, Kristof (2017) Feasibility of transdermal delivery of Cyclosporine A using plasma discharges. Biointerphases. 12:02B402). Flux can be measured where the temperature of the Franz Diffusion Cell (and solutions inside the Franz Diffusion Cell) are held constant at about 17 degrees C., about 20 degrees C., about 23 degrees C. (“room temperature”), about 26 degrees C., about 30 degrees C., about 33 degrees C., about 37 degrees C. (mammalian body temperature), about 40 degrees C., and so on.
For each figure, the number of hours that flux was allowed to occur was twentyfour hours (24 hours). The data for each figure used a monolithic patch. Composition of the patch: PIB adhesive with 15% of CBD or 8% THC. Patch construction was adhesive layer attached to a backing polyethylene foam film. No additional overlays were used. Experiments were done using Franz Diffusion Cells using human cadaver skin.

Consider `C=C(C)[C@@H]1CCC(C)=C[C@H]1c1c(O)cc(CCCCC)cc1O` [CBD, cannabidiol], for which the “daily systemic dose of CBD deliverable” value in series [1] is “about 5 mg”. Further, the “control net flux of CBD” value in series [2] (control monolithic patch without any dihydromyricetin, 15% CBD, over a period of 24 hours) is “about 155 micrograms CBD per square centimeter of skin”. In addition, the “cumulative transdermal flux of CBD” value is “about 155 micrograms/cm^2” in series [2] (monolithic PIB patch, 15% CBD, 0% dihydromyricetin, 24 hours, FIG. 2 first bar); “about 195 micrograms/cm^2” in series [2] (monolithic PIB patch, 15% CBD, 3% dihydromyricetin, 24 hours, FIG. 2 second bar); “about 230 micrograms/cm^2” in series [2] (monolithic PIB patch, 15% CBD, 5% dihydromyricetin, 24 hours, FIG. 2 third bar). In addition, the “net flux of CBD” value in series [2] (monolithic PIB patch, 15% CBD, with dihydromyricetin, over a period of 24 hours) is “at least 195 micrograms CBD per square centimeter of skin”.

In the case of `CCCCCc1cc(O)c2c(c1)OC(C)(C)[C@@H]1CCC(C)=C[C@@H]21` [THC, tetrahydrocannabinol], the “control net flux of THC” value in series [2] (control monolithic patch without any dihydromyricetin, 8% THC, over a period of 24 hours) is “about 90 micrograms THC per square centimeter of skin”. Moreover, the “cumulative transdermal flux of THC” value in series [2] (monolithic PIB patch, 8% THC, 0.5% dihydromyricetin, 24 hours, FIG. 1 third bar) is listed as “about 145 micrograms/cm^2”; in series [2] (monolithic PIB patch, 8% THC, 3% oleic acid, 24 hours, FIG. 1 second bar), “about 110 micrograms/cm^2”; in series [2] (monolithic PIB patch, 8% THC, no enhancer, 24 hours, FIG. 1 first bar), “about 90 micrograms/cm^2”. Further, in series [2] (monolithic PIB patch, 8% THC, with dihydromyricetin, over a period of 24 hours), the “net flux of THC” value is “at least 145 micrograms THC per square centimeter of skin”.

Consider `O=C1c2c(O)cc(O)cc2O[C@H](c2cc(O)c(O)c(O)c2)[C@H]1O` [dihydromyricetin], for which the “stimulation of cumulative THC flux versus no dihydromyricetin” value in series [2] (8% THC patch, 5% dihydromyricetin (third histogram bar), 24 hours) is recorded as “about 61%”. For the same compound, the “stimulation of cumulative CBD flux versus no dihydromyricetin” value is “about 25%” in series [2] (3% dihydromyricetin, 24 hours) and “about 48%” in series [2] (5% dihydromyricetin, 24 hours). Moreover, the “increase of CBD flux through skin (factor)” value in series [2] (dermal patch formulation that includes CBD, human cadaver skin) was “three-fold”.
